This note sets out measurements from patent US20250002460A1, “SORTILIN INHIBITORS” (SORTINA PHARMA AB, priority 2021, published 2025).

The target of one assay is T1, human sortilin (sSORT) (Homo sapiens, UniProt Q99523).
T1 sequence (Q99523 78-756 limits assumed): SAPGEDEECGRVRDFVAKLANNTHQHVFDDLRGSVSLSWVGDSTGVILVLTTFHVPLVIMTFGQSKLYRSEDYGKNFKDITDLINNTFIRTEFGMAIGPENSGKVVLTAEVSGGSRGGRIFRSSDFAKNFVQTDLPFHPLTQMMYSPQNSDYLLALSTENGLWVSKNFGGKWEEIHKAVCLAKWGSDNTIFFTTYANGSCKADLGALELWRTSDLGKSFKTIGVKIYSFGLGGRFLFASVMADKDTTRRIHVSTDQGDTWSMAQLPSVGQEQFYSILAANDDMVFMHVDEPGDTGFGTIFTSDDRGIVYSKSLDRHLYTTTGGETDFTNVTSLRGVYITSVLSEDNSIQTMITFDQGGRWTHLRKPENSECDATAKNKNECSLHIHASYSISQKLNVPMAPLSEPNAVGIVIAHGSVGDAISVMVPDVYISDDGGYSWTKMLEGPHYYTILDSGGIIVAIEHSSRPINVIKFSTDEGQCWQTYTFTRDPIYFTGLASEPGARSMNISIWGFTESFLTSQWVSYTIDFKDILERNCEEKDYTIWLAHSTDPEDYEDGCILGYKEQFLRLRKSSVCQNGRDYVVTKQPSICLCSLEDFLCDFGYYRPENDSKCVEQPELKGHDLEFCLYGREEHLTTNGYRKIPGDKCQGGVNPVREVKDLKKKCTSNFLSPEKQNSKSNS
In words: Neurotensin competitive fluorescence polarization binding assay (FPA). The following applies: mean IC50 values for sortilin inhibitors, IC50 (nM), 100 nM sSORT, 10 nM Neurotensin-Ahx-FITC, 1 h room temperature.
Procedure: Fresh 0.1% bovine serum albumin (BSA) was added to the assay buffer to obtain the final concentration: 50 mM HEPES, pH 7.4; 100 mM NaCl; 2.0 mM CaCl2; 0.1% BSA; 0.1% TWEEN® 20. The sortilin inhibitors of the invention and reference compounds (see Table 1) analyzed in the screen and neurotensin (used as an assay control) were serially diluted in ten different concentrations in assay buffer. In each well of a Nunc® MaxiSorp™ 384-well plate (Sigma Aldrich), 100 nM sSORT was mixed with pre-diluted sortilin inhibitors and 10 nM Neurotensin-Ahx-FITC in assay buffer adjusted to contain 1% DMSO in a final volume of 20 μl. The plate was then briefly centrifuged prior to 1 h incubation at room temperature in the dark.
For `Cc1nc(N(C)C)ncc1C(=O)NC(/C=C/C(C)(C)C)C(=O)O` (single isomer, unassigned) [SI1 (active enantiomer), (E)-2-[2-(dimethylamino)-4-methyl-5-pyrimidinylcarbonylamino]-5,5-dimethyl-3-hexenoic acid], the IC50 (as a rule, the concentration that inhibits the measured activity by half) amounted to 9 nM.
The molecule `CC(C)(C)/C=C/C(NC(=O)C1CN(c2ccccn2)CCN1)C(=O)O` (single isomer, unassigned) [SI3 diastereomer 1, (E)-5,5-dimethyl-2-[4-(2-pyridyl)-2-piperazinylcarbonylamino]-3-hexenoic acid] returned an IC50 of 135 nM.
Same read-out and setting: the same measure for `CC(C)(C)/C=C/C(NC(=O)C1CN(c2ccccn2)CCN1)C(=O)O` (single isomer, unassigned) [SI3 diastereomer 2, (E)-5,5-dimethyl-2-[4-(2-pyridyl)-2-piperazinylcarbonylamino]-3-hexenoic acid]: 339 nM.
Still for that read-out and setting: the same measure for `CC(C)(C)/C=C/C(NC(=O)C1CN(c2ccncc2)CCN1)C(=O)O` (single isomer, unassigned) [SI4 diastereomer 1, (E)-5,5-dimethyl-2-[4-(4-pyridyl)-2-piperazinylcarbonylamino]-3-hexenoic acid]: 229 nM; for `CC(C)(C)/C=C/C(NC(=O)C1CN(c2ccncc2)CCN1)C(=O)O` (single isomer, unassigned) [SI4 diastereomer 2, (E)-5,5-dimethyl-2-[4-(4-pyridyl)-2-piperazinylcarbonylamino]-3-hexenoic acid]: 912 nM; for `CC(C)(C)/C=C/C(NC(=O)c1ccc(Oc2ccccc2)nc1)C(=O)O` (single isomer, unassigned) [SI (active enantiomer), (E)-5,5-dimethyl-2-(6-phenoxynicotinoylamino)-3-hexenoic acid]: 5 nM.
Same read-out and setting: the same measure for `Cc1nc(N(C)C)ncc1C(=O)NC(CCC(C)(C)C)C(=O)O` (centres unmarked) [RC1, 2-[2-(dimethylamino)-4-methyl-5-pyrimidinylcarbonylamino]-5,5-dimethylhexanoic acid, reference compound]: 123 nM; for `CC(C)(C)CC[C@H](NC(=O)c1ccc(Oc2ccccc2)nc1)C(=O)O` [RC2 (active enantiomer), (S)-5,5-dimethyl-2-(6-phenoxynicotinoylamino)hexanoic acid, reference compound]: 28 nM; for `CC(C)(C)/C=C/C(NC(=O)c1ccc(C(=O)C(F)(F)F)cc1)C(=O)O` (centres unmarked) [SI2, (E)-5,5-dimethyl-2-[p-(2,2,2-trifluoroacetyl)benzoylamino]-3-hexenoic acid]: 234 nM.
The molecule `CC(C)(C)/C=C/C(NC(=O)c1cccc(-n2cnnc2)c1)C(=O)O` (centres unmarked) [SI6, (E)-5,5-dimethyl-2-[m-(4H-1,2,4-triazol-4-yl)benzoylamino]-3-hexenoic acid] displayed a half-inhibitory concentration (IC50) of 62 nM.
Same read-out and setting: in the case of `Cc1cc2[nH]c(C(=O)NC(/C=C/C(C)(C)C)C(=O)O)cc2cn1` (centres unmarked) [SI7, (E)-5,5-dimethyl-2-(6-methyl-1H-1,5-diazainden-2-ylcarbonylamino)-3-hexenoic acid] it was 89 nM; in that of `CC(C)Cc1cc(C(=O)NC(/C=C/C(C)(C)C)C(=O)O)n(C)n1` (centres unmarked) [SI9, (E)-2-(3-isobutyl-1-methyl-5-pyrazolylcarbonylamino)-5,5-dimethyl-3-hexenoic acid], 102 nM; in that of `CN(C)c1ncc(C(=O)NC(/C=C/C(C)(C)C)C(=O)O)cn1` (centres unmarked) [SI17, (E)-2-[2-(dimethylamino)-5-pyrimidinylcarbonylamino]-5,5-dimethyl-3-hexenoic acid], 149 nM.
Consider `CN(C)c1nccc(C(=O)NC(/C=C/C(C)(C)C)C(=O)O)n1` (centres unmarked) [SI19, (E)-2-[2-(dimethylamino)-4-pyrimidinylcarbonylamino]-5,5-dimethyl-3-hexenoic acid], for which the half-inhibitory concentration (IC50) turned out to be 851 nM.
The same measure, in the same setting: in the case of `Cc1cc(C(=O)NC(/C=C/C(C)(C)C)C(=O)O)nc(N(C)C)n1` (centres unmarked) [SI20, (E)-2-[2-(dimethylamino)-6-methyl-4-pyrimidinylcarbonylamino]-5,5-dimethyl-3-hexenoic acid] it was 1000 nM; in that of `CC(C)(C)/C=C/C(NC(=O)c1ccc(-n2cnnc2)cc1)C(=O)O` (centres unmarked) [SI23, (E)-5,5-dimethyl-2-[p-(4H-1,2,4-triazol-4-yl)benzoylamino]-3-hexenoic acid], 158 nM; in that of `CC(C)(C)/C=C/C(NC(=O)c1cccc(-n2cncn2)c1)C(=O)O` (centres unmarked) [SI24, (E)-5,5-dimethyl-2-[m-(1H-1,2,4-triazol-1-yl)benzoylamino]-3-hexenoic acid], 52 nM.
The same measure, in the same setting: the same measure for `CC(C)(C)/C=C/C(NC(=O)c1cc(Br)c[nH]1)C(=O)O` (centres unmarked) [SI28, (E)-2-(4-bromo-2-pyrrolylcarbonylamino)-5,5-dimethyl-3-hexenoic acid]: 55 nM.
Same read-out and setting: the same measure for `CC(C)(C)/C=C/C(NC(=O)c1ccc(Cl)[nH]1)C(=O)O` (centres unmarked) [SI29, (E)-2-(5-chloro-2-pyrrolylcarbonylamino)-5,5-dimethyl-3-hexenoic acid]: 80 nM.
The molecule `Cn1cc(Cl)cc1C(=O)NC(/C=C/C(C)(C)C)C(=O)O` (centres unmarked) [SI31, (E)-2-(4-chloro-1-methyl-2-pyrrolylcarbonylamino)-5,5-dimethyl-3-hexenoic acid] gave an IC50 of 71 nM.
For `CC(C)(C)/C=C/C(NC(=O)c1ccc(Oc2cccnc2)cc1)C(=O)O` (centres unmarked) [SI34, (E)-5,5-dimethyl-2-[p-(3-pyridyloxy)benzoylamino]-3-hexenoic acid], the IC50 came to 56 nM.
`CC(C)(C)/C=C/C(NC(=O)c1cnc(Oc2ccccc2)nc1)C(=O)O` (centres unmarked) [SI44, (E)-5,5-dimethyl-2-(2-phenoxy-5-pyrimidinylcarbonylamino)-3-hexenoic acid]: the IC50 is 158 nM.
For the molecule `CC(C)(C)/C=C/C(NC(=O)c1cccc(-n2cnnc2)n1)C(=O)O` (centres unmarked) [SI50, (E)-5,5-dimethyl-2-[6-(4H-1,2,4-triazol-4-yl)-2-pyridylcarbonylamino]-3-hexenoic acid], the IC50 was 668 nM.
The same measure, in the same setting: the same measure for `CC(C)(C)/C=C/C(NC(=O)c1cccc(-c2cccs2)c1)C(=O)O` (centres unmarked) [SI52, (E)-5,5-dimethyl-2-[m-(2-thienyl)benzoylamino]-3-hexenoic acid]: 31 nM.
`CC(C)(C)/C=C/C(NC(=O)c1ccc(Oc2ccc(Cl)cc2)cc1)C(=O)O` (centres unmarked) [SI53, (E)-2-[p-(p-chlorophenoxy)benzoylamino]-5,5-dimethyl-3-hexenoic acid] displayed an IC50 of 148 nM.
As to `CC(C)(C)/C=C/C(NC(=O)c1ccc(Oc2cccc(Cl)c2)cc1)C(=O)O` (centres unmarked) [SI54, (E)-2-[p-(m-chlorophenoxy)benzoylamino]-5,5-dimethyl-3-hexenoic acid], the IC50 came out at 158 nM.
Regarding `CC(C)(C)/C=C/C(NC(=O)c1ccc(COc2ccccc2)cc1)C(=O)O` (centres unmarked) [SI55, (E)-5,5-dimethyl-2-[p-(phenoxymethyl)benzoylamino]-3-hexenoic acid], the IC50 amounted to 116 nM.
For the molecule `CCn1nc(CC(C)C)cc1C(=O)NC(/C=C/C(C)(C)C)C(=O)O` (centres unmarked) [SI56, (E)-2-(1-ethyl-3-isobutyl-5-pyrazolylcarbonylamino)-5,5-dimethyl-3-hexenoic acid], the IC50 came out at 95 nM.
Molecule `Cn1nc(Cl)cc1C(=O)NC(/C=C/C(C)(C)C)C(=O)O` (centres unmarked) [SI57, (E)-2-(3-chloro-1-methyl-5-pyrazolylcarbonylamino)-5,5-dimethyl-3-hexenoic acid] came in with an IC50 of 45 nM.
As for `Cn1nc(-c2cccnc2)cc1C(=O)NC(/C=C/C(C)(C)C)C(=O)O` (centres unmarked) [SI59, (E)-5,5-dimethyl-2-[1-methyl-3-(3-pyridyl)-5-pyrazolylcarbonylamino]-3-hexenoic acid], the IC50 came to 316 nM.
As for `Cn1nc(C(=O)NC(/C=C/C(C)(C)C)C(=O)O)cc1-c1ccc(Cl)c(Cl)c1` (centres unmarked) [SI61, (E)-2-[5-(3,4-dichlorophenyl)-1-methyl-3-pyrazolylcarbonylamino]-5,5-dimethyl-3-hexenoic acid], the IC50 came to 117 nM.

Still in this assay, the particulars now being: read-out: mean IC50 values for sortilin inhibitors, IC50; 100 nM sSORT, 10 nM Neurotensin-Ahx-FITC, 1 h room temperature.
In the case of “(E)-2-(2-isopropyl-4-methyl-5-pyrimidinylcarbonylamino)-5,5-dimethyl-3-hexenoic acid [SI49]”, the IC50 was found to be 68 nM.
